The conditions of data set [1]: for AUC(0-inf) / half-life / Cmax / AUC(0-t): both, human, plasma; for AUC(0-inf) / half-life / Cmax: oral; for AUC(0-t): po.
A short description of data set [2]: clinical. To be noted: both, human, plasma, oral, 50 mg.
Data set [3] concerns CYP3A4. As to conditions: cited from earlier work.
Data set [4] concerns urinary free cortisol (UFC). To be noted: 2–30 mg twice daily, 10 weeks, 11/12 patients with Cushing’s disease; cited from earlier work.
For data set [5] the following is noted: safety set, 20 subjects.
For a further data set, the target named is CYP2D6 (Homo sapiens, UniProt P10635). As to conditions: single dose of 50 mg osilodrostat.
Sequence of CYP2D6 (P10635 whole entry): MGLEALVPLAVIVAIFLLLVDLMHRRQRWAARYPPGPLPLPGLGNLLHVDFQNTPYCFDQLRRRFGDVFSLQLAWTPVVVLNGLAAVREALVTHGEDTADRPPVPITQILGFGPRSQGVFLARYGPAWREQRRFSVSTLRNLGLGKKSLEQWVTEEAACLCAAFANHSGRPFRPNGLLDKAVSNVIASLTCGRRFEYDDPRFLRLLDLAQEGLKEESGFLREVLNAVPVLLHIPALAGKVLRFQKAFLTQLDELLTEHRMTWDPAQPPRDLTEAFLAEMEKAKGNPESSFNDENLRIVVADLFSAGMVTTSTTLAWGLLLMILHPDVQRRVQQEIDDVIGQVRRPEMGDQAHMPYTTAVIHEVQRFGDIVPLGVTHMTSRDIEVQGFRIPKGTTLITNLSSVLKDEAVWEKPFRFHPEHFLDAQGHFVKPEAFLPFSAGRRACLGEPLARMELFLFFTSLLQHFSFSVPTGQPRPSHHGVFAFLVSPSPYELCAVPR
The nature of data set [6]: clinical. As to conditions: both, human, plasma, po, 50 mg.
A further data set concerns CYP3A4/5. To be noted: single dose of 50 mg osilodrostat.
The conditions of data set [7]: cited from earlier work.
Data set [8] concerns urinary free cortisol (UFC). To be noted: after 22 weeks of treatment, 15/19 patients; cited from earlier work.
Another data set relates to CYP1A2. As to conditions: single dose of 50 mg osilodrostat.
The subject of data set [9] is CYP3A4. As to conditions: cited from earlier work. The source holds these as a separate data set.
The mark [10] stands for this setting: C max, substrate alone, geometric mean (CV%).
The mark [11] stands for this setting: substrate alone, geometric mean (CV%).

Read-outs that look alike come from different tables or passages of the source. Some results are limits rather than exact numbers.

Consider `COc1ccc2c(c1)[C@]13CCCC[C@@H]1[C@H](C2)N(C)CC3` [Dextromethorphan, dextromethorphan], for which, in data set [1], the AUC(0-inf) (commonly total exposure, with the tail of the curve extrapolated) was 22.8 ng·h/mL and the half-life (commonly the time in which the quantity being followed falls by half) is 7.63 h. Also, in data set [1] (setting [10]), the Cmax (in general, the peak of the concentration-time curve) came to 1.24 ng/mL. Besides, the CL/F in data set [1] (setting [11]) was 1310 (193.8) L/h.
On to `Cc1ncc2n1-c1ccc(Cl)cc1C(c1ccccc1F)=NC2` [Midazolam, midazolam], for which, in the data set “clinical [2]”, the AUC(0-t) (commonly exposure summed from dosing to a finite time, without extrapolation to infinity) was found to be 31.7 ng·h/mL; the Cmax is 12.8 ng/mL; the half-life was 4.81 h. In addition, in [1], the total exposure AUC(0-inf) was determined as 22 ng·h/mL and the half-life is 4.44 h. Moreover, the Cmax in data set [1] (setting [10]) was 8.78 ng/mL. Moreover, the CL/F in [1] (setting [11]) is reported as 91.0 (39.6) L/h.
Turning to `CC(=O)N1CCN(c2ccc(OCC3COC(Cn4ccnc4)(c4ccc(Cl)cc4Cl)O3)cc2)CC1` (stereo not drawn) [Ketoconazole, ketoconazole], the “FDA inhibitor classification, CYP3A4” value in the data set with CYP3A4 [3] (based on midazolam AUC change) is on record as “strong inhibitor (strong inhibitor, ≥5-fold increase in AUC)”. Moreover, in the data set with CYP3A4 [3], the “increase in midazolam AUC after ketoconazole administration” value is recorded as no more than 16 fold.
Take `N#Cc1ccc([C@H]2CCc3cncn32)c(F)c1` [Osilodrostat]: the “patients with normalized UFC” value in data set [4] is 92%. In addition, in data set [5], the “fatigue (suspected drug related)” value is 15%; the “flatulence and diarrhea (suspected drug related)” value came to 5%; the “grade 3 or 4 AEs or serious AEs” value is reported as “No grade 3 or 4 AEs, or serious AEs”; the “subjects with AEs suspected to be drug related” value was determined as 30%. Also, on CYP2D6, the “FDA inhibitor classification, CYP2D6” value is on record as “weak inhibitor (weak inhibitor, ≥1.25- but <2-fold increase in AUC)”. In addition, in the data set “clinical [6]”, the AUC(0-inf) came out at 3430 ng·h/mL; the highest level (Cmax) was 392 ng/mL; the Tmax (as a rule, the time at which the peak concentration occurs) is roughly 1.53 h; the half-life was 4.73 h. For the same molecule, the “FDA inhibitor classification, CYP3A4/5” value in the data set with CYP3A4/5 is “weak inhibitor (weak inhibitor, ≥1.25- but <2-fold increase in AUC)”. For the same molecule, the half-life in data set [7] is 3 to 5 h. For the same molecule, the “patients with normalized UFC” value in data set [8] is 79%. Further, the “FDA inhibitor classification, CYP1A2” value in the data set with CYP1A2 is “moderate inhibitor (moderate inhibitor, ≥2- but <5-fold increase in AUC)”.
In the data set “clinical [2]”, `COc1ccc2[nH]c([S+]([O-])Cc3ncc(C)c(OC)c3C)nc2c1` (stereo not drawn) [Omeprazole, omeprazole] gave an AUC(0-inf) of 885 ng·h/mL, an AUC(0-t) of 852 ng·h/mL and a Cmax of 420 ng/mL. In addition, in data set [1], the AUC(0-inf) was 618 ng·h/mL, the half-life is 0.77 h and the AUC(0-t) was 460 ng·h/mL. In data set [1] (setting [11]), the C max is reported as 271 (69.7) ng/mL and the CL/F is reported as 32.3 (92.9) L/h.
Regarding `Clc1ccc(C(c2ccccc2Cl)C(Cl)Cl)cc1` (stereo not drawn) [Mitotane, mitotane], in the data set on CYP3A4 [9], the “CYP3A4 induction” value is given as “strong inducer”.
Take `Cn1c(=O)c2c(ncn2C)n(C)c1=O` [Caffeine, caffeine]: in “clinical [2]”, the AUC(0-inf) stood at 41900 ng·h/mL, the AUC(0-t) is 41100 ng·h/mL, the highest level (Cmax) was 2640 ng/mL and the half-life is 7.39 h. In data set [1], this molecule gave an AUC(0-inf) of 16200 ng·h/mL, a Cmax of 2500 ng/mL, a half-life of 5.39 h and an AUC(0-t) of 17200 ng·h/mL. Moreover, in data set [1] (setting [11]), the CL/F was 6.18 (44.8) L/h.

Values taken from article PMC5394143 (Clinical Drug Investigation, 2017).
